Here are results for 5 molecules from article PMC10146604, “The Balance between Hydrophobicity/Aromaticity and Positively Charged Residues May Influence the Cell Penetration Ability” (Pharmaceutics, 2023).

For the data set, the system named is EBC-1 human lung squamous carcinoma cells. Put plainly: Cellular uptake by flow cytometry. Format: cell-based. The settings on record: 90 min, 37 °C, trypsinization; for cellular uptake (in words) / cellular uptake relative to the control octaarginine (Cf-Arg8): 5 µM peptide, serum-free medium; for cellular uptake (in words): compared with Cf-Arg8; for cellular uptake relative to the control octaarginine (Cf-Arg8): flow cytometry fluorescence intensity normalized to Cf-Arg8. Here is the method:
For the examination of the internalization of the peptides, 10^5 cultured EBC-1 cells per well were plated on 24-well plates. The cells were incubated for 24 h at 37 °C then they were treated with peptides at different concentrations for 90 min in a serum-free medium. In the negative control the cells were treated with a serum-free medium. After the incubation, the peptide solutions were removed and 100 µL trypsin (0.25%) was added for 5–10 min to remove membrane bound peptides and detach the adherent cells from the plates. The activity of trypsin was terminated by the addition of 900 µL HPMI buffer (glucose, NaHCO3, NaCl, HEPES, KCl, MgCl2, CaCl2, Na2HPO4∙2H2O) containing 10% fetal bovine serum, and the cells were transferred from the plates to FACS-tubes for measurement. The cells were centrifuged at 216× g at 4 °C for 5 min and the supernatant was removed. The cells were resuspended in 250 µL HPMI, and the fluorescence intensity of the cells was quantified using flow cytometry (BD LSR II, BD Bioscience, San Jose, CA, USA). The data were analyzed with FACSDiva 5.0 software (BD Bioscience, San Jose, CA, USA).
The cellular uptake of the peptides was determined using flow cytometry on EBC-1 human lung squamous carcinoma cells. The peptides were added to the cells at a concentration of 5 µM for 90 min at 37 °C. Selected constructs were used to study the concentration dependence at 0.125, 1.25 and 2.5 µM with 90 min treatment times. When evaluating the measurements data, the fluorescence of cells treated with peptides was corrected with the autofluorescence of cells without peptide treatment. The toxicity of the peptide conjugates was determined by comparing the live and dead cells ratio during the flow cytometry analysis.

Molecules are shown by their SMILES. Peptide text beside a SMILES is read from it. * marks the point of attachment. 5FAM = O=C1OC2(c3ccc(O)cc3Oc3cc(O)ccc32)c2ccc(C(=O)*)cc21; Dabcyl = CN(C)c1ccc(N=Nc2ccc(C(=O)*)cc2)cc1

As to `CN(C)c1ccc(N=Nc2ccc(C(=O)NCCCC[C@H](NC(=O)[C@H](CCCNC(=N)N)NC(=O)[C@H](CCCNC(=N)N)NC(=O)[C@H](CCCNC(=N)N)NC(=O)[C@H](CCCNC(=N)N)NC(=O)[C@H](CCCNC(=N)N)NC(=O)[C@H](CCCNC(=N)N)NC(=O)c3ccc4c(c3)C(=O)OC43c4ccc(O)cc4Oc4cc(O)ccc43)C(N)=O)cc2)cc1` [Cf-(Arg)6-Lys(Dabcyl)], under “EBC-1 cells, flow cytometry”, the “cellular uptake (in words)” value is listed as “surprisingly poor cellular uptake”. Moreover, the “cellular uptake compared with octaarginine at low concentrations (in words)” value (EBC-1 cells, 0.125, 1.25 and 2.5 µM peptide, flow cytometry) is reported as “significantly decreased uptake”.

With `CN(C)c1ccc(N=Nc2ccc(C(=O)N[C@@H](CCCNC(=N)N)C(=O)N[C@@H](CCCNC(=N)N)C(=O)N[C@@H](CCCNC(=N)N)C(=O)N[C@@H](CCCNC(=N)N)C(=O)N[C@@H](CCCCNC(=O)c3ccc4c(c3)C(=O)OC43c4ccc(O)cc4Oc4cc(O)ccc43)C(N)=O)cc2)cc1` [Dabcyl-(Arg)4-Lys(Cf)] (Dabcyl-RRRRK(5FAM)-NH2), the “cellular uptake (in words)” value (EBC-1 cells, flow cytometry) was “lower cellular uptake than octaarginine”.

As for `CN(C)c1ccc(N=Nc2ccc(C(=O)N[C@@H](CCCNC(=N)N)C(=O)N[C@@H](CCCNC(=N)N)C(=O)N[C@@H](CCCNC(=N)N)C(=O)N[C@@H](CCCNC(=N)N)C(=O)N[C@@H](CCCNC(=N)N)C(=O)N[C@@H](CCCNC(=N)N)C(=O)N[C@@H](CCCCNC(=O)c3ccc4c(c3)C(=O)OC43c4ccc(O)cc4Oc4cc(O)ccc43)C(N)=O)cc2)cc1` [Dabcyl-(Arg)6-Lys(Cf)], for the setting “EBC-1 cells”, the “cellular uptake relative to the control octaarginine (Cf-Arg8)” value is 6.5 times. On the same count and under the same terms, the figure for `CN(C)c1ccc(N=Nc2ccc(C(=O)N[C@@H](CCCNC(=N)N)C(=O)N[C@@H](CCCNC(=N)N)C(=O)N[C@@H](CCCNC(=N)N)C(=O)N[C@@H](CCCNC(=N)N)C(=O)N[C@@H](CCCNC(=N)N)C(=O)N[C@@H](CCCNC(=N)N)C(=O)N[C@@H](CCCNC(=N)N)C(=O)N[C@@H](CCCCNC(=O)c3ccc4c(c3)C(=O)OC43c4ccc(O)cc4Oc4cc(O)ccc43)C(N)=O)cc2)cc1` [Dabcyl-(Arg)7-Lys(Cf)] is 6 times. Consider `CN(C)c1ccc(N=Nc2ccc(C(=O)NCc3ccc(C(=O)N[C@@H](CCCNC(=N)N)C(=O)N[C@@H](CCCNC(=N)N)C(=O)N[C@@H](CCCNC(=N)N)C(=O)N[C@@H](CCCNC(=N)N)C(=O)N[C@@H](CCCNC(=N)N)C(=O)N[C@@H](CCCNC(=N)N)C(=O)N[C@@H](CCCNC(=N)N)C(=O)N[C@@H](CCCNC(=N)N)C(=O)N[C@@H](CCCCNC(=O)c4ccc5c(c4)C(=O)OC54c5ccc(O)cc5Oc5cc(O)ccc54)C(N)=O)cc3)cc2)cc1` [Dabcyl-AMBA-(Arg)8-Lys(Cf)], for which the “cellular uptake relative to Cf-Arg8” value (EBC-1 cells, 1.25 µM peptide, flow cytometry) was ~ 6 times. Besides, the “cellular uptake relative to octaarginine” value (EBC-1 cells, 2.5 µM peptide, flow cytometry) is given as 30 times. The “cellular uptake relative to the control octaarginine (Cf-Arg8)” value (EBC-1 cells) is ~ 8 times.
